The values that follow come from patent publication US20150064273A1, “Mesenchymal Stem Cells Conditioned Medium and Methods of Generating and Using the Same” (Gamida-Cell Ltd., priority 2012, published 2015).

Common to all, as to type: cell-based
The test system of test [1] is Hepatocyte Growth Factor (HGF). Kind of test: HGF content of MSC conditioned medium by ELISA. The following applies: passage 4; 5 mM NAM, 50 ng/ml FGF4; serum- and FGF4-free medium for 24 hours. From the text:
FIG. 22 is a bar graph illustrating enhancement of Hepatocyte Growth Factor (HGF) content of conditioned medium from nicotinamide and FGF4-treated MSC cultures. Bone marrow mesenchymal stem cells were isolated using Ficoll and plastic adherence method, and cultured for several passages with fetal bovine serum, with added nicotinamide and FGF4 (+NAM+FGF4), with added nicotinamide (+NAM−FGF4) and without added nicotinamide or FGF (−NAM−FGF4). Twenty four hours before passage 4, the media was changed and fresh media without fetal bovine serum or FGF4 was added. The cultured media from passage 4 cultures was collected and assayed for HGF content by ELISA. −NAM, −FGF4=control; +NAM−FGF4=5 mM NAM, +NAM+FGF4=5 mM NAM+50 ng/ml FGF4. Note the significant effect of combined FGF4 and nicotinamide on HGF secretion; Mesenchymal stem cells cultured with nicotinamide and FGF4 have enhanced expansion potential, and maintain an undifferentiated state, compared to mesenchymal stem cells cultured in unsupplemented medium, or mesenchymal stem cells cultured with added nicotinamide alone. In order to assess whether mesenchymal stem cells cultured with nicotinamide or nicotinamide and FGF4 modify the culture medium in a unique manner, secretion of biologically active molecules into the culture medium was measured by ELISA, after depletion of the FGF4 from the medium.
A general note: An ELISA detects its analyte on a solid surface through an enzyme-linked reagent.

Test [2] relates to mesenchymal stem cells. Briefly: In-vitro wound healing assay on MSC cultures. Particulars: passage 3; 4 days post wound formation. The procedure: FIGS. 20A-B are photographs illustrating results of an in vitro wound healing assay which was performed on MSCs cultured with (FIG. 20B) or without (FIG. 20A) nicotinamide at passage 3. Wound healing was observed 4 days post wound formation. In-vitro wound healing assay: Wound was performed in MSCs cultures at ˜70% confluence using 200 μl or 1000 μl tip. Four days later the cells were fixated using 10% cold Formalin (Sigma) and stained with Harris Hematoxylin (Sigma). The in-vitro wound healing process was evaluated using microscope.

A further test relates to IL-6. Briefly: IL-6 content of MSC conditioned medium by ELISA. The following applies: passage 4; 5 mM NAM, 50 ng/ml FGF4; serum- and FGF4-free medium for 24 hours. The procedure:
FIG. 25 is a bar graph illustrating reduction of cytokine IL-6 (IL-6) content of conditioned medium from nicotinamide and FGF4-treated MSC cultures. Bone marrow mesenchymal stem cells were isolated and cultured as in FIG. 22 above. Cultured media was changed to medium without fetal bovine serum or FGF4 24 hours prior to passage 4, collected from the passage 4 cultures and assayed for IL-6 content by ELISA. −NAM, −FGF4=control; +NAM−FGF4=5 mM NAM, +NAM+FGF4=5 mM NAM+50 ng/ml FGF4. […] In order to assess whether mesenchymal stem cells cultured with nicotinamide or nicotinamide and FGF4 modify the culture medium in a unique manner, secretion of biologically active molecules into the culture medium was measured by ELISA, after depletion of the FGF4 from the medium.

Test [3] concerns adipose derived mesenchymal stem cells. Kind of test: Adipose tissue derived MSC expansion and cell size with nicotinamide, with or without FGF4. The following applies: 5 mM NAM, 50 ng/ml FGF4. The procedure:
FIG. 15 is a graph illustrating the effect of nicotinamide, with and without FGF4 on adipose-derived MSC proliferation, through 4 passages of culture. Adipose derived mesenchymal stem cells were isolated using collagenase digestion and plastic adherence method, and cultured for several passages with fetal bovine serum. −NAM−FGF4=controls (blue diamonds), +NAM−FGF4=culture with 5 mM NAM (red squares), +NAM+FGF4=culture with 50 ng/ml FGF4 and 5 mM NAM (green triangles). Note the synergic effect of Nicotinamide and FGF4 added together on adipose-derived MSC proliferation; FIG. 16 is a graph detailing the effect of nicotinamide, with and without FGF4 on nucleated cell proliferation in adipose-derived MSC proliferation at passage 4. Adipose-derived mesenchymal stem cells were isolated and cultured as described in FIG. 15. −NAM−FGF4=controls, +NAM−FGF4=culture with 5 mM NAM, +NAM+FGF4=culture with 50 ng/ml FGF4 and 5 mM NAM. […] Cell size was analyzed by Cedex cell counter. −NAM−FGF4=controls, +NAM−FGF4=culture with 5 mM NAM, +NAM+FGF4=culture with 50 ng/ml FGF4 and 5 mM NAM. Note the smaller size of MSC cells grown in the presence of nicotinamide, and even smaller MSCs grown with nicotinamide and FGF4; Proliferation and cell size distribution in adipose-derived mesenchymal stem cells cultured with nicotinamide with or without additional FGF4 was assessed in up to 4 passages of the cultures.

In test [4] the test system is mesenchymal stem cells. Briefly: Senescence evaluation assay of cultured MSCs. Particulars: MSCs cultured with nicotinamide. The procedure: Senescence evaluation assay: Cultured MSCs were stained using the Senescence beta-Galactosidase Staining Kit (Cell Signaling). The cells are fixed and stained for detection of beta-Galactosidase activity at pH 6 using X-Gal and incubation overnight in 37° C. in dry incubator.

Test [5] deals with mesenchymal stem cells. Briefly: MSC cell size (Cedex cell counter) and granularity (side scatter FACS). The procedure:
Measurement of cell size: Cell size was measured using Cedex Automated Cell Counter (Innovatis). The cells were diluted 1:2 in Trypan Blue (Sigma) and cell size was measured automatically under microscope. Measurement of granularicity: Following trypsin treatment, the cells were analyzed for granularicity by side scatter FACS.

Structures are written as SMILES.

As for `NC(=O)c1cccnc1` [nicotinamide, Nicotinamide], the “HGF level in conditioned medium” value in test [1] was “elevated levels”. Moreover, the “wound closure capacity of MSCs” value with mesenchymal stem cells [2] is recorded as “higher wound closure capacity”. For the same compound, the “IL-6 secreted into conditioned medium” value in the test with IL-6 is given as “reduction”. The “size of the expanded adipose-derived mesenchymal stem cells” value in test [3] (Cedex cell counter) is given as “enhanced growth of populations of smaller (less differentiated) cells”. Also, the “adipose derived mesenchymal stem cell expansion in culture” value in test [3] (up to 4 passages) is “substantially improved”. Also, in the test on mesenchymal stem cells [4], the “number of senescent cells following culture” value is given as “reduced”. For the same compound, in the test with mesenchymal stem cells [5] (FGF4 50 ng/ml, NAM 5 mM, Cedex cell counter), the “cell size / undifferentiated state of MSCs cultured with FGF4” value is given as “preserves the undifferentiated state”. Besides, the “cell size and granularity of MSCs grown with nicotinamide vs without” value in the test with mesenchymal stem cells [5] (identical conditions without nicotinamide as comparison) was “smaller and less granular”.
